“Also recorded” adds a separate entry of the source.
Assays:
BALB/c and SJL mice = test: Clinical manifestations of SLE in immunized mice (WBC, proteinuria, kidney analysis); format: in vivo, mouse; conditions: for W.B.C., white blood cell counts / proteinuria: five months after immunization; for number of white blood cells (in words): in comparison to non-immunized mice or p278-immunized mice
Method: The erythrocyte sedimentation rate was determined by diluting the heparinized blood in PBS at a ratio of 1:1. The diluted blood was then passed to a microsampling pipette and the sedimentation was measured 6 hours later. White blood cell counts were determined after the hemolysis of heparinized blood. Proteinuria was measured in a semi-quantitative manner, using a Combistix kit (Ames, Stoke Poges, Slough, U.K.). Immunohistology was performed by incubation of fixed frozen cryostat sections with FITC-labeled antibodies to mouse Ig. Staining was visualized via use of a fluorescent microscope.
BALBtc and SJL mice were immunized with mAb 5G12 or with peptides Ia and IIIa, and five months later were checked by two criteria for manifestation of SLE: white blood cell count (WBC) and proteinuria.
(i) White blood cell count (WBC): The mice were bled, their blood was diluted 1:10 with 1% (vol/vol) acetic acid in order to eliminate the red blood cells, and white blood cells were counted under a normal light microscope.
Proteinuria: The urine of the mice was tested using combisticks (Combistix Kit, Ames) for the presence of protein.

SJL/J and BALB/c mice = test: Anti-nuclear extract (NE) antibodies in sera of immunized mice (ELISA); format: in vivo, mouse
Method: Five groups of mice were immunized according to Example 2, and their sera were tested for the presence of anti-NE antibodies.
ELISA was utilized to test the presence of the anti-NE antibodies in the sera of the mice, as follows: Plates (Nunc) were coated with 5 μg/ml of HeLa cells NE for 90 min. Thereafter plates were washed and blocked, and ELISA was continued the next day, as described in Example 2 for anti-DNA antibodies.

[1] = test system: T cell line specific to peptide IIIa of SJL origin; test: Proliferation and cytokine secretion of peptide IIIa-specific T cell line; format: cell-based, mouse
Method: A further test which can be conducted is to test for the ability of the analogs to inhibit cytokine secretion by the T cell line or by T lymphocytes oh lymph nodes of mice that are high responders to SLE-inducing autoantibodies. The cytokines are detected as follows: IL-1 activity is assessed either by ELISA using a pair of capture and detecting antibodies (as described below for IL-4, IL-6, IL-10) or using the LBRM-33(1A5) assay (Conlon, 1983) in which 1A5 cells are stimulated in the presence of phytohemagglutinin (PHA), with either supernatants or recombinant IL-1 at various concentrations to secrete IL-2. […] Stimulation of the CTLL line by IL-2 is measured after 24 hr by incorporation of ^3[H]-thymidine. IL-2 is directly detected using the IL-2 dependent CTLL line or by ELISA. Levels of IL-4, IL-6, IL-10, INFγ and TNFα in the supernatants are determined by ELISA using antibodies to the various cytokines (Phamingen, San Diego, Calif., USA) according to the manufacturer's instructions.
T cell lines and clones specific to the 16/6 Id were established from immunized lymph node cells as previously described (Axelrod and Mozes, 1986). […] At the end of 48 hours incubation, 0.5 μCi of ^3H-thymidine were added for an additional 18 hours, after which cells were harvested and radioactivity was counted. […]

[2] = test system: lymph node cells (LNC) of BALB/c and SJL mice; test: In vivo inhibition of LNC proliferation to human mAb 16/6 Id; conditions: 200 μg/mouse i.v., vs not treated or p307
Method: BALB/c (FIG. 7a) and SJL (FIG. 7b) mice were immunized with human mAb 16/6 Id (1 μg/mouse in CFA i.d. in the hind footpads) and were injected (200 μg/mouse i.v. in PBS) with either peptide Ia or IIIa, respectively. Proliferation responses to mAb 16/6 Id were measured in LNC taken from immunized but not-treated mice (filled squares), from mice treated concomitantly with immunization with the control peptide p307 (half filled squares) or from mice treated with the appropriate CDR-based peptide Ia or IIIa (open squares). Proliferation responses were also shown to the immunodominant CDR-based peptide Ia or IIIa of LNC taken from 16/6 Id immunized non-treated mice (filled circles) or from mice treated with the appropriate CDR-based peptide Ia or IIIa (open circles). Results are expressed as mean CPM of triplicates.

BALB/c mice = test: Neonatal tolerization of BALB/c mice, then autoantibody titers after immunization; format: in vivo, mouse; conditions: BALB/c neonates, 100 μg i.p. twice; immunized 6-7 weeks later with peptide Ia or mAb 5G12
Method: In order to either prevent induction of experimental SLE or to cure mice afflicted with the disease, the following procedures were used: (i) Newborn mice were tolerized with a peptide of the invention (100 μg of the peptide in PBS, intraperitoneally at 24 and 72 hours after birth). Six weeks later, the mice were immunized with the pathogenic autoantibody, e.g. 5G12 (16/6 Id+) and examined for disease manifestations; (ii) A first group of adult mice was injected with various concentrations of the peptides before disease induction with the pathogenic autoantibody or pathogenic T cell line; another group was injected with the peptides to be tested for their therapeutic effect six weeks following immunization at the peak of the serological response; and a further group was treated at 4-6 months post-immunization after the establishment of the overt SLE disease. The number of injections with the peptides was determined based on their effect on the disease induction and progression. The effect of the peptide treatment on T cell proliferation, on the autoantibody production and on the disease manifestations was then evaluated.
In order to further elucidate the role of the peptides in SLE, peptide Ia was utilized for the induction of tolerance in BALB/c mice. Newborn mice were injected twice (at day 1 and 3) with either peptide Ia or a control peptide. […]

[3] = BALB/c mice immunized as in Example 2
[4] = SJL/J mice immunized as in Example 2

| Substance | W.B.C., white blood cell counts (BALB/c and SJL mice; BALB/c mice) | proteinuria (BALB/c and SJL mice; BALB/c mice) | W.B.C., white blood cell counts (BALB/c and SJL mice; SJL mice) | proteinuria (BALB/c and SJL mice; SJL mice) | number of white blood cells (in words) (BALB/c and SJL mice) | anti-NE antibodies in sera (SJL/J and BALB/c mice; [3]) | anti-NE antibodies in sera (SJL/J and BALB/c mice; [4]) | cytokine secretion of T cell line upon stimulation [1] | proliferative responses to mAb 16/6 Id of LNC ([2]; SJL mice immunized with human mAb 16/6 Id) | protein level in urine (in words) (BALB/c and SJL mice; BALB/c mice) | protein level in urine (in words) (BALB/c and SJL mice; SJL mice) | anti-DNA and anti-NE autoantibody titers after neonatal tolerization (BALB/c mice) | proliferative responses to mAb 16/6 Id of LNC ([2]; BALB/c mice immunized with human mAb 16/6 Id) |
| --- | --- | --- | --- | --- | --- | --- | --- | --- | --- | --- | --- | --- | --- |
| YYYCARFLWEPYAMDYWGQGS (YYCARFLWEPYAMDYWGQGS) [peptide IIIa, based on the CDR3 region of the VH chain of mAb 5G12] | 3325 ± 400 per mm^3 | 0.30 ± 0.01 g/L | 3300 ± 1343 per mm^3 | 0.9 ± 0.075 g/L | lower number of white blood cells | very low level of anti-NE antibodies | high level of anti-NE antibodies | secreted the Thl-type cytokines, namely, IL-2, IFNγ and TNFα | inhibited | – | – | – | – |
| TGYYMQWVKQSPEKSLEWIG [peptide Ia] | 3375 ± 350 per mm^3 | 0.88 ± 0.076 g/L | – | 0.375 ± 0.04 g/L | lower number of white blood cells | high levels of anti-NE antibodies | lower levels of anti-NE antibodies | – | – | High levels of protein | smaller increase in protein level | did not produce significant titers of antibodies to either DNA or nuclear extract antigens; also recorded: produced lower levels of anti-DNA and anti-NE antibodies | inhibited |

From patent US6613536B1, “Synthetic peptides and pharmaceutical compositions comprising them for the treatment of systemic lupus erythematosus” (Yeda Research and Development Co. Ltd., priority 1995, dated 2003)
